Measurements taken from BindingDB's records for doi:10.1016/s0960-894x(99)00462-x (Abbott Laboratories, 1999).

Assay: Nicotinic acetylcholine receptor binding activity was determined by ability to displace [125I]alpha-BgT binding to rat brain membrane
`CN1CC[C@@H](Oc2cccnc2)C1` [3-((R)-1-Methyl-pyrrolidin-3-yloxy)-pyridine] showed a Ki of over 10 µM.
In the case of `CN1CC[C@H](Oc2cccnc2)C1` [3-((S)-1-Methyl-pyrrolidin-3-yloxy)-pyridine], the Ki is reported as over 10 µM.
Work on `c1ncc(OC[C@@H]2CCN2)cn1` [5-((S)-1-Azetidin-2-ylmethoxy)-pyrimidine] yielded a Ki of over 10 µM.
In the case of `CN1CC[C@H]1COc1cncnc1` [5-((S)-1-Methyl-azetidin-2-ylmethoxy)-pyrimidine], the Ki is reported as over 10 µM.
